In patent publication US11629169B2, “Use of peptides as therapeutic agent for autoimmune diseases and bone diseases” (KINE SCIENCES CO., LTD., priority 2017, dated 2023):

Columns and labels:
[1] = test system: naive CD4+ T cells extracted from lymph nodes of the mouse; assay: Th17 cell differentiation inhibition (CD4+IL-17+ T cell population); format: cell-based; conditions: IL-6 20 ng/ml and TGF-beta 5 ng/ml with TCR activation; peptide 10 ng/ml to 1000 ng/ml; 3 days; induced group 3.14%, non-induced 1.2%
Protocol: In order to confirm the efficacy of the synthetic peptides prepared in Example 1 to inhibit Th17 cell differentiation, naive CD4^+ T cells extracted from lymph nodes of the mouse were treated with IL-6 20 ng/ml and TGF-beta 5 ng/ml together with TCR activation to induce differentiation into Th17 cells.
At the same time, three peptides Pep2, Pep3, and Pep4 disclosed in Table 2 of Test Example 1 were treated at a concentration of 10 ng/ml to 1000 ng/ml, respectively. Then, after incubation for 3 days, CD4+IL-17+ T cell population was analyzed.

[2] = test system: collagen-induced arthritis (CIA) mouse model; assay: Rheumatoid arthritis treatment effect in collagen-induced arthritis (CIA) mouse model; format: in vivo, DBA/1J mouse; conditions: CIA mice, intraperitoneally 3 times a week after second immunization; similar efficacy compared to positive control MTX
Protocol: In order to confirm a rheumatoid arthritis improvement effect of the peptides prepared in Example 1, a rheumatoid arthritis mouse model was prepared with reference to a known literature (Nat Protoc. 2007; 2 (5):
Specifically, a CIA mouse model is a mouse model most commonly used in a rheumatoid arthritis animal test as an autoimmune disease arthritis model having characteristics similar to human rheumatoid arthritis. In the CIA mouse model, bovine type II collagen (Chondrex, USA) was mixed and emulsified with a Freund's complete adjuvant (Chondrex, USA) at 1:1, and then first immunization was performed by injecting 50 μl of the emulsified collagen solution intradermally into a 6-week-old DBA/1J mouse tail. On 2 weeks after the first immunization, bovine type II collagen was mixed and emulsified with a Freund's incomplete adjuvant (Chondrex, USA) at 1:1, and then second immunization (boosting) was performed by injecting 50 μl of the emulsified collagen solution induced) intradermally into the mouse tail. After the second immunization, each peptide was intraperitoneally administered 3 times a week from the following day to observe a therapeutic effect of the peptides for rheumatoid arthritis.
In order to examine the progression of rheumatoid arthritis according to the peptide treatment of the present invention, the severity of rheumatoid arthritis over time was evaluated and measured by a rheumatoid arthritis progress index.
At this time, the arthritis progress index was evaluated as Points 0 to 4 per leg in accordance with the arthritis progress evaluation criteria by Rossoliniec, etc. in Table 2 below and shown to total Points 0 to 16 (sum of four legs). Thereafter, an average value of the results evaluated by the two observers was calculated to quantify the severity of arthritis.

Substance | ratio of Th17 cells (CD4+IL-17+ T cell population) [1] | arthritis improvement (arthritis progress index, total Points 0 to 16) [2]
SSPSSP (Pep2) | reduced similarly to the group that did not induce differentiation | efficacy of arthritis improvement was shown
PSSPSS (Pep1) | – | efficacy of arthritis improvement was shown
PTPPTP (Pep3) | reduced similarly to the group that did not induce differentiation | –
PTSPTS (Pep4) | reduced similarly to the group that did not induce differentiation | efficacy of arthritis improvement was shown
STSSTS (Pep6) | – | efficacy of arthritis improvement was shown
